The values below come from patent publication EP4563148A1, “MEDICINE FOR TREATING CANCER” (Science Technology Interact Co., Ltd., priority 2022, dated 2024).

The structures appear in SMILES notation.

Holding throughout (format): cell-based, human
Assay [1] has as its system KYSE270 cells. As to the kind of experiment: Cell viability of KYSE270 cells with siRNA-reduced homologous recombination activity. The settings on record: KYSE270 cells with expression of RAD51 suppressed by siRNA, compared with control; 5 days of culture. As to the method:
(§1) KYSE270 cells and KYSE30 cells (human esophageal squamous cell carcinoma cell line) were purchased from JCRB Cell Bank, National Institutes of Biomedical Innovation, Health and Nutrition (Osaka, Japan). KYSE270 cells and KYSE30 cells were cultured in a medium in which RPMI1640 and Ham's F12 medium (both of which were manufactured by FUJIFILM Wako Pure Chemical Corporation, Osaka, Japan) were mixed in equal amounts and 5% FBS was added at 37°C in the presence of 5% CO2.
(§2) HeLa cell suspension adjusted to 5000 cells/ml was seeded in a 96 well plate at 100 ul/well, and the next day, siRNA was introduced, followed by addition of Olaparib or Nicaraven. One hundred twenty hours after gene introduction and Olaparib addition, HeLa cells were replaced in a medium to which Presto Blue assay (Thermo-Fisher Scientific, Waltham, MA, USA) had been added so as to have a final concentration of 5%, followed by reaction in the presence of 5% CO2 at 37°C for 1 hour, and then fluorescence was measured under conditions of an excitation wavelength of 520 nm and a fluorescence wavelength of 580 to 640 nm using GloMax (registered trademark) Explorer Multimode Microplate Reader (Promega, Madison, WI, USA).
Fig. 6A. […] After 5 days of culture, cell viability was measured. […]

For assay [2], the system named is HeLa cells. Nature of the assay: Drug sensitivity test: cell viability (Presto Blue) of HeLa cells with siRNA-reduced homologous recombination activity. To be noted: 96 hours of culture. On the procedure: as §2
After 96 hours of culture, cell viability was measured.
Figs. 1B and 1C show the measurement results of cell viability.

The test system of assay [3] is γ-H2AX. Nature of the assay: Western blot of γ-H2AX after ionizing radiation. To be noted: HeLa cells, drug 30 minutes before 10 Gy of X-ray, collected two hours later. As to the method: The culture medium for the cells seeded on a 3.5 cm dish was removed, followed by washing with 1x PBS and then direct dissolution in a 1x Sodium dodecyl sulfate (SDS) sample buffer (2% SDS, 1% 2-Mercaptoethanol [2-ME], 50 mM Tris-HCL [pH 6.8], 12% glycerol, 1% Bromophenol blue [BPB]). Thereafter, the solution was subjected to ultrasonic treatment with Vibra cell (Sonics & Materials Inc., CT, USA) and heated at 95°C for 5 minutes to prepare a whole cell extract. For Western blotting, electrophoresis was performed through a 6%, 10% SDS polyacrylamide gel, and […] was done to a PVDF membrane (Millipore Corporation Darmstadt, Germany) for 1.5 h, followed by blocking with 5% skim milk-PBS for 3 to 16 h. After blocking, a primary antibody diluted with a 0.5% BSA/TBS-T or Can get signal solution (TOYOBO, Osaka, Japan) was allowed to react overnight at 4°C. After washing 3 times with PBS-T for 10 minutes, a secondary antibody diluted with 0.5% BSA/TBS-T was allowed to react at room temperature for 1 to 3 hours. […]
The day after HeLa cells were seeded, Nicaraven was added, and 30 minutes later, the cells were irradiated with 10 Gy of X-ray. […] Cell extracts were adjusted and analyzed with Western Blot. […]

The subject of assay [4] is KYSE30 cells. Nature of the assay: Cell viability of KYSE30 cells with siRNA-reduced homologous recombination activity. The settings on record: KYSE30 cells with expression of RAD51 suppressed by siRNA, compared with control. On the procedure: as §1, §2
Fig. 7. […]

Assay [5] deals with γ-H2AX. Nature of the assay: γ-H2AX intranuclear foci immunostaining after ionizing radiation (DNA repair process). To be noted: drug 30 minutes before 1.5 Gy of X-ray, 24 hours after irradiation. As to the method:
After cell seeding, Nicaraven was added. After 30 minutes, the cells were irradiated with 1.5 Gy of X-ray, and after 2 hours and 24 hours, the cells were fixed and immunostained with an anti-γ-H2AX antibody.
Cells in which five or more γ-H2AX intranuclear foci were observed were counted, and the ratio was calculated and represented in a graph. Respective cells in which less than 5, 5 or more and less than 10, 10 or more and less than 20, and 20 or more γ-H2AX intranuclear foci were observed were counted, and the ratio was calculated and represented in a graph (Fig. 3D).
After IR, more γ-H2AX intranuclear foci are observed in multiple cells in 2 hours. After 24 hours, DNA double strand break is repaired, reducing the number of cells having intranuclear foci and the number of intranuclear foci per cell. Suppression of expression of RAD51 suppressed DNA damage repair. […] It is considered that more DNA damage was formed due to PARP inhibitory action. The measurement of nuclear focus of γ-H2AX 24 hours after X-ray irradiation in this example is a result in a cell having a fast cell cycle.

The test system of assay [6] is homologous recombination activity. As to the kind of experiment: Assay for site-specific homologous recombination activity (ASHRA). To be noted: HeLa cells, siRNA of control, BRCA1 or RAD51; 48 hours of culture with drug. As to the method:
HeLa cells were seeded on a 3.5 cm dish, and the next day, siRNA was introduced. After 24 hours of culture from the introduction of siRNA, LentiCRISPRv2-ACTB-C1 and pBS-ACTB-200 GFPfr1 (vector for ASHRA measurement) were introduced, and Nicaraven was added at the same time. After further culturing for 48 hours, genomic DNA was purified using Blood Genomic DNA Extraction Mini Kit (Favorgen, Ping-tung, Taiwan). Genome quantitative PCR was performed using Go Taq qPCR master mix (Promega, Madison, WI, USA), measurement was done using CFX96 Touch Real-time PCR detection system (BioRad, Hercules, CA, USA), and knock-in efficiency was calculated by ΔΔCt method. Sequences of a primer for detecting a knock-in allele and a primer for detecting a reference allele are shown below. • For knock-in allyl detection • Forward […] • Reverse […] • For reference allyl detection • Forward […] • Reverse […] • Reference paper: NPL 2.
After 24 hours, a vector for measurement of homologous recombination activity was introduced, and Nicaraven was added. After 48 hours of culture, DNA was collected and homologous recombination activity was measured.
The homologous recombination ability was analyzed by Assay for site-specific homologous recombination activity (ASHRA) (Yoshino et al. Scientific Reports 2019, method shown in Fig. 5).

Setting [7] is: HeLa cells with expression of BRCA1 and RAD51 suppressed by siRNA, compared with control siRNA.

For the compound `O=C(c1cc(Cc2n[nH]c(=O)c3ccccc23)ccc1F)N1CCN(C(=O)C2CC2)CC1` [Olaparib], the cell viability result in assay [1] and in assay [2] (setting [7]) was “decreased cell viability” each time.
As to `CC(CNC(=O)c1cccnc1)NC(=O)c1cccnc1` (stereo not shown) [Nicaraven], the “amount of γ-H2AX” value in assay [3] is “reduced”. For the same compound, the cell viability result in assay [1] is given as “cell viability further decreased”; in assay [4], “cell viability decreased”; in assay [2] (setting [7]), “cell viability further decreased”; in assay [2] (HeLa cells, drug added 24 hours after siRNA), “decreased cell viability in a concentration-dependent manner”. Further, the “γ-H2AX intranuclear foci (DNA damage remaining)” value in assay [5] (HeLa cells with expression of RAD51 suppressed, compared with control) is “DNA damage remained more remarkably”; in assay [5] (HeLa cells, control and RAD51 siRNA), “caused DNA damage to remain”. In addition, in assay [6], the homologous recombination activity entry is “did not affect the homologous recombination ability”.
